Counter-ions that a name gives are not always drawn.

A word on the IC50: it is the concentration that gives 50% inhibition.

The subject of assay [1] is Intracellular H3K27me3 in HCT116 cells. Kind of assay: Intracellular H3K27me3 inhibitory activity evaluation. Format: cell-based. The note with it: Homo sapiens, HCT-116, 72 h, 3 days, AlphaLISA, read-out: Test Example 3 H3K27me3 inhibition (HCT116) IC50. (Alpha assays give light when donor and acceptor beads are brought close together.)
In a further assay the target is PRC2-EZH1 (WT EZH1) (Homo sapiens, UniProt Q92800). The assay can be described thus: EZH1 methyltransferase inhibitory activity evaluation.
The next assay concerns the target T1, PRC2-EZH2 (WT EZH2) (Homo sapiens, UniProt Q15910).
T1 construct: made in house
The assay can be described thus: EZH2 methyltransferase inhibitory activity evaluation. Format: biochemical. The conditions noted are these: PRC2-EZH2, biotin-H3 peptide, 3H-SAM, 2 hours.

PRC2-EZH1 (WT EZH1), sequence (Q92800 whole entry): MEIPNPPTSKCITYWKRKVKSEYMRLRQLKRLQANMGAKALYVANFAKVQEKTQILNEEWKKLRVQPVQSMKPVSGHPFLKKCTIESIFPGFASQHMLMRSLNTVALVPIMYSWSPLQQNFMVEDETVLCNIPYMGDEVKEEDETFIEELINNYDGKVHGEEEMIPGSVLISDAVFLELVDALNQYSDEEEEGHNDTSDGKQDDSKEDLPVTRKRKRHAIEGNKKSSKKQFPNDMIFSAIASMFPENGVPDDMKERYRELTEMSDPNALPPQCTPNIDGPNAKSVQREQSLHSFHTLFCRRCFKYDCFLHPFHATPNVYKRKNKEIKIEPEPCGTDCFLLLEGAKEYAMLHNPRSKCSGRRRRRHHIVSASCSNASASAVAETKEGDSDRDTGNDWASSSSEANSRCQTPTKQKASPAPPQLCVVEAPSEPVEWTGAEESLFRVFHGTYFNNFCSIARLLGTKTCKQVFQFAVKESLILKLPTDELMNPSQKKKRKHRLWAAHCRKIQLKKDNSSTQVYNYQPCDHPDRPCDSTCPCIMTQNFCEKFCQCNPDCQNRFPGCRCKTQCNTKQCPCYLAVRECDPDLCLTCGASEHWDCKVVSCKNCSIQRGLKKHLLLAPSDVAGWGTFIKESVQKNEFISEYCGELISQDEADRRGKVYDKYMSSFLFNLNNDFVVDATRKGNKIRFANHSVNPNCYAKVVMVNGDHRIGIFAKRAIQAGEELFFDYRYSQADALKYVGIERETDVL
PRC2-EZH1 (WT EZH1), sequence (O75530 whole entry partner): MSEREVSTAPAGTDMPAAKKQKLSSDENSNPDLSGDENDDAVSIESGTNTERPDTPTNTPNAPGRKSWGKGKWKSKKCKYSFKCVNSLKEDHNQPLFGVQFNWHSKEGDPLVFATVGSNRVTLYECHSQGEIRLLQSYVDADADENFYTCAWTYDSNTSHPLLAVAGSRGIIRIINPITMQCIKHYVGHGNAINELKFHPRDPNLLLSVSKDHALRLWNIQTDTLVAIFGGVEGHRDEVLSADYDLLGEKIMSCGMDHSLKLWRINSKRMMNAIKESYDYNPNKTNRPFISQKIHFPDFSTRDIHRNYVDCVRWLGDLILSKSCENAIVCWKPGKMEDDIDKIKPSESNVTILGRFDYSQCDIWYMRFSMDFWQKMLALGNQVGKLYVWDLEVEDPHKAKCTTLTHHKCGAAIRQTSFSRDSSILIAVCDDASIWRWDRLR
PRC2-EZH1 (WT EZH1), sequence (Q15022 whole entry partner): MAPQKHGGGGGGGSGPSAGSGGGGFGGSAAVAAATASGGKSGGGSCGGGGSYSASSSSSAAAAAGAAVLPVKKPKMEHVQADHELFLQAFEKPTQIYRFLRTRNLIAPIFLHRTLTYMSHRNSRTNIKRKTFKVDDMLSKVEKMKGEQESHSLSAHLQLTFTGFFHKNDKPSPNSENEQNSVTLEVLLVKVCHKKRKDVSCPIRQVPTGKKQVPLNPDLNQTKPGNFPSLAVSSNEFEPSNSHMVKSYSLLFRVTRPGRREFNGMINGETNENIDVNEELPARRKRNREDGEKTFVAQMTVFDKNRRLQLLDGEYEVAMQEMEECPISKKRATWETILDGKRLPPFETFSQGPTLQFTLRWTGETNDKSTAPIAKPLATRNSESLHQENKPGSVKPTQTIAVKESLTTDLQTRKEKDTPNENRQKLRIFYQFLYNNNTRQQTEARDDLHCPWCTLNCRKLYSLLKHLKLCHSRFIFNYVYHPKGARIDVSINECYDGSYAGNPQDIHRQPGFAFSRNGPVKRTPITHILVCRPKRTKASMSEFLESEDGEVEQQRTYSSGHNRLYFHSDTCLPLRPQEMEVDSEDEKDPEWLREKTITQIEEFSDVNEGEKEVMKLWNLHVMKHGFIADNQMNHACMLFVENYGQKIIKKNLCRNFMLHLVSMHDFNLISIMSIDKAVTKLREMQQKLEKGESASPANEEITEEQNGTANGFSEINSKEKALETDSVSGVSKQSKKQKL
PRC2-EZH1 (WT EZH1), sequence (Q09028 whole entry partner): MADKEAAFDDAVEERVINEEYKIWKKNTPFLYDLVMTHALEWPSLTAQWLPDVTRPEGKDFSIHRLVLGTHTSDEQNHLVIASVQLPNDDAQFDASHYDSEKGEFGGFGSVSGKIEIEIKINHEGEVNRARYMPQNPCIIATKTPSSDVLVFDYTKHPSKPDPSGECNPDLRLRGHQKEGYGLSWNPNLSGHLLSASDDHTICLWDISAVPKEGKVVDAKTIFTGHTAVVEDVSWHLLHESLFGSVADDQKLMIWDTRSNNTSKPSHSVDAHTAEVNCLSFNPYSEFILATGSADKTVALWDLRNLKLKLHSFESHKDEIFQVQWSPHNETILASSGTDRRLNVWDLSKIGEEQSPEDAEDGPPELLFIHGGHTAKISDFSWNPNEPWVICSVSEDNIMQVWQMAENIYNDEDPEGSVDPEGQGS
PRC2-EZH1 (WT EZH1), sequence (Q6ZN18 whole entry partner): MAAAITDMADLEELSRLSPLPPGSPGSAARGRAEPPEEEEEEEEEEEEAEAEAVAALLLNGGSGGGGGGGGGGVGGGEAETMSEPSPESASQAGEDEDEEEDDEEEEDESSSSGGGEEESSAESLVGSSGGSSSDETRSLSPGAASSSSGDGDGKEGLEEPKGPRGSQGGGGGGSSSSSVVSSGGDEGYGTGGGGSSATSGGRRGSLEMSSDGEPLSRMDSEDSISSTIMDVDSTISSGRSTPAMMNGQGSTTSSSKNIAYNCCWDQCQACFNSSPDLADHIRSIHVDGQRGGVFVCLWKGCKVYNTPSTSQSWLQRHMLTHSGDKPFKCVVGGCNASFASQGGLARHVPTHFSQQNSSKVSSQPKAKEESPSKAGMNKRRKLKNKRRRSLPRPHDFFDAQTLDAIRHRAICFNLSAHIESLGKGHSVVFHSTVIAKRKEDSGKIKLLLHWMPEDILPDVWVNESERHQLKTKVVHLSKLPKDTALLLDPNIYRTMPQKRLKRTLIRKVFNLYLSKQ
T1 sequence (Q15910 whole entry): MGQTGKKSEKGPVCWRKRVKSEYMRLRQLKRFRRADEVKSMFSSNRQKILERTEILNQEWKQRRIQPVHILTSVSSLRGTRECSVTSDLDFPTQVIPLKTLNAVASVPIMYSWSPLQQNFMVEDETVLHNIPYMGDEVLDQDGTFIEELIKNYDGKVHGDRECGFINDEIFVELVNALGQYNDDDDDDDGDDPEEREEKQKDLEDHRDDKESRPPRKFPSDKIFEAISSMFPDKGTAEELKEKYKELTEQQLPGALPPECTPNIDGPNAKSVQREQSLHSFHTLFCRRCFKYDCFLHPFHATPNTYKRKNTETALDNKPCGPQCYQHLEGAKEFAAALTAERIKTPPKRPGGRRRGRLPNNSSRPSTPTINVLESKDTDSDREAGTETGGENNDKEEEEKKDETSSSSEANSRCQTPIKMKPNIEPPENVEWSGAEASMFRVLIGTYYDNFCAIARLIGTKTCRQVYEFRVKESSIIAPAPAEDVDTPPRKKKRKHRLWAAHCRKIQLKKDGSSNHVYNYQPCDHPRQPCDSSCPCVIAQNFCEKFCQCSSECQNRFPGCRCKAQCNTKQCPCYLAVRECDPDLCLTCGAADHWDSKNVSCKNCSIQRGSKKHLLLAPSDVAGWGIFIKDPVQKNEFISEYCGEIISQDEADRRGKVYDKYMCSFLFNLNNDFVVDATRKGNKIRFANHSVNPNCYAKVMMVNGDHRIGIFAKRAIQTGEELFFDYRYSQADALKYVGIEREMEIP
T1 sequence (O75530 whole entry partner): as the sequence (O75530 whole entry partner) above
T1 sequence (Q15022 whole entry partner): as the sequence (Q15022 whole entry partner) above
Experimental for PRC2-EZH1 (WT EZH1): EZH1 Methyltransferase Inhibitory Activity Evaluation
(§1) Then, the residual radioactivity was measured using TopCount NXT HTS (PerkinElmer, Inc., model C384V01).
Experimental for PRC2-EZH2 (WT EZH2): EZH2 Methyltransferase Inhibitory Activity Evaluation
as §1

Consider `Cc1cc(C)c(CNC(=O)c2cc(C3=CCOCC3)c3c(c2C)OC(C)([C@H]2CC[C@H](N(C)C)CC2)O3)c(=O)[nH]1` (relative stereo) [Example 62, 7-(3,6-Dihydro-2H-pyran-4-yl)-2-[trans-4-(dimethylamino)cyclohexyl]-N-[(4,6-dimethyl-2-oxo-1,2-dihydropyridin-3-yl)methyl]-2,4-dimethyl-1,3-benzodioxole-5-carboxamide], for which the figures for the IC50 (in assay [1]; at PRC2-EZH1 (WT EZH1); on PRC2-EZH2 (WT EZH2)) were 5.5 nM, 11 nM and 6.6 nM, respectively.
With `Cc1cc(C)c(CNC(=O)c2cc(-c3ccc(CN4CCOCC4)nc3)c3c(c2C)OC(C)([C@H]2CC[C@H](N(C)C)CC2)O3)c(=O)[nH]1` (relative stereo) [Example 63, 2-[trans-4-(Dimethylamino)cyclohexyl]-N-[(4,6-dimethyl-2-oxo-1,2-dihydropyridin-3-yl)methyl]-2,4-dimethyl-7-[6-(morpholinomethyl)-3-pyridyl]-1,3-benzodioxole-5-carboxamide], the values for the half-maximal inhibitory concentration (IC50) (in assay [1]; against PRC2-EZH1 (WT EZH1); against PRC2-EZH2 (WT EZH2)) were 13 nM, 17 nM and 22 nM, respectively.
With `Cc1cc(C)c(CNC(=O)c2cc(-c3cccnc3)c3c(c2C)OC(C)([C@H]2CC[C@H](N(C)C)CC2)O3)c(=O)[nH]1` (relative stereo) [Example 64, 2-[trans-4-(Dimethylamino)cyclohexyl]-N-[(4,6-dimethyl-2-oxo-1,2-dihydropyridin-3-yl)methyl]-2,4-dimethyl-7-(3-pyridyl)-1,3-benzodioxole-5-carboxamide], the values for the IC50 (in assay [1]; on PRC2-EZH1 (WT EZH1); on PRC2-EZH2 (WT EZH2)) were 6.8 nM, 22 nM and 14 nM, respectively.
In the same order, the values of `Cc1cc(C)c(CNC(=O)c2cc(-c3cnn(C)c3)c3c(c2C)OC(C)([C@H]2CC[C@H](N(C)C)CC2)O3)c(=O)[nH]1` (relative stereo) [Example 65, 2-[trans-4-(Dimethylamino)cyclohexyl]-N-[(4,6-dimethyl-2-oxo-1,2-dihydropyridin-3-yl)methyl]-2,4-dimethyl-7-(1-methylpyrazol-4-yl)-1,3-benzodioxole-5-carboxamide hydrochloride] are 13 nM, 23 nM and 18 nM.
The corresponding values for `C=Cc1cc(C(=O)NCc2c(C)cc(C)[nH]c2=O)c(C)c2c1OC(C)([C@H]1CC[C@H](N(C)C)CC1)O2` (relative stereo) [Example 66, 2-[trans-4-(Dimethylamino)cyclohexyl]-N-[(4,6-dimethyl-2-oxo-1,2-dihydropyridin-3-yl)methyl]-2,4-dimethyl-7-vinyl-1,3-benzodioxole-5-carboxamide] are 1.7 nM, 27 nM and 22 nM.
On to `C#Cc1cc(C(=O)NCc2c(C)cc(C)[nH]c2=O)c(C)c2c1OC(C)([C@H]1CC[C@H](N(C)C)CC1)O2` (relative stereo) [Example 67, 2-[trans-4-(Dimethylamino)cyclohexyl]-N-[(4,6-dimethyl-2-oxo-1,2-dihydropyridin-3-yl)methyl]-7-ethynyl-2,4-dimethyl-1,3-benzodioxole-5-carboxamide], for which the IC50 in assay [1] was 1 nM; on PRC2-EZH1 (WT EZH1), 17 nM; against PRC2-EZH2 (WT EZH2) it was 19 nM.
Consider `Cc1cc(C)c(CNC(=O)c2cc(C3CC3)c3c(c2C)OC(C)([C@H]2CC[C@H](N(C)C)CC2)O3)c(=O)[nH]1` (relative stereo) [Example 68, 7-Cyclopropyl-2-[trans-4-(dimethylamino)cyclohexyl]-N-[(4,6-dimethyl-2-oxo-1,2-dihydropyridin-3-yl)methyl]-2,4-dimethyl-1,3-benzodioxole-5-carboxamide], for which the IC50 was 1.6 nM in assay [1], 29 nM against PRC2-EZH1 (WT EZH1) and 18 nM against PRC2-EZH2 (WT EZH2).
The corresponding values for `Cc1cc(C)c(CNC(=O)c2cc(-c3ccnc(N4CCN(C)CC4)c3)c3c(c2C)OC(C)([C@H]2CC[C@H](N(C)C)CC2)O3)c(=O)[nH]1` (relative stereo) [Example 69, 2-[trans-4-(Dimethylamino)cyclohexyl]-N-[(4,6-dimethyl-2-oxo-1,2-dihydropyridin-3-yl)methyl]-2,4-dimethyl-7-[2-(4-methylpiperazin-1-yl)-4-pyridyl]-1,3-benzodioxole-5-carboxamide] are 29 nM, 32 nM and 24 nM.
`Cc1cc(C)c(CNC(=O)c2cc(-c3cncs3)c3c(c2C)OC(C)([C@H]2CC[C@H](N(C)C)CC2)O3)c(=O)[nH]1` (relative stereo) [Example 70, 2-[trans-4-(Dimethylamino)cyclohexyl]-N-[(4,6-dimethyl-2-oxo-1,2-dihydropyridin-3-yl)methyl]-2,4-dimethyl-7-thiazol-5-yl-1,3-benzodioxole-5-carboxamide hydrochloride]: the values for the half-maximal inhibitory concentration (IC50) (in assay [1]; at PRC2-EZH1 (WT EZH1); at PRC2-EZH2 (WT EZH2)) were 4.3 nM, 38 nM and 26 nM, respectively.
The corresponding values for `Cc1cc(C)c(CNC(=O)c2cc(C3=CCN(C)CC3)c3c(c2C)OC(C)([C@H]2CC[C@H](N(C)C)CC2)O3)c(=O)[nH]1` (relative stereo) [Example 71, 2-[trans-4-(Dimethylamino)cyclohexyl]-N-[(4,6-dimethyl-2-oxo-1,2-dihydropyridin-3-yl)methyl]-2,4-dimethyl-7-(1-methyl-3,6-dihydro-2H-pyridin-4-yl)-1,3-benzodioxole-5-carboxamide] are 99 nM, 43 nM and 19 nM.
As to `CC(=O)c1cc(C(=O)NCc2c(C)cc(C)[nH]c2=O)c(C)c2c1OC(C)([C@H]1CC[C@H](N(C)C)CC1)O2` (relative stereo) [Example 72, 7-Acetyl-2-[trans-4-(dimethylamino)cyclohexyl]-N-[(4,6-dimethyl-2-oxo-1,2-dihydropyridin-3-yl)methyl]-2,4-dimethyl-1,3-benzodioxole-5-carboxamide hydrochloride], the 50% inhibitory concentration (IC50) in assay [1] came out at 13 nM; at PRC2-EZH1 (WT EZH1), 76 nM; on PRC2-EZH2 (WT EZH2), 17 nM.
The corresponding values for `CCc1cc(C)[nH]c(=O)c1CNC(=O)c1cc(-c2ccc(N3CCN(CC)CC3)nc2)c2c(c1C)OC(C)([C@H]1CC[C@H](N(C)C)CC1)O2` (relative stereo) [Example 73, 2-[trans-4-(Dimethylamino)cyclohexyl]-N-[(4-ethyl-6-methyl-2-oxo-1,2-dihydropyridin-3-yl)methyl]-7-[6-(4-ethylpiperazin-1-yl)-3-pyridyl]-2,4-dimethyl-1,3-benzodioxole-5-carboxamide hydrochloride] are 6.1 nM, 12 nM and 22 nM.
The corresponding values for `CCCc1cc(C)[nH]c(=O)c1CNC(=O)c1cc(-c2ccc(N3CCN(CC)CC3)nc2)c2c(c1C)OC(C)([C@H]1CC[C@H](N(C)C)CC1)O2` (relative stereo) [Example 74, 2-[trans-4-(Dimethylamino)cyclohexyl]-7-[6-(4-ethylpiperazin-1-yl)-3-pyridyl]-2,4-dimethyl-N-[(6-methyl-2-oxo-4-propyl-1,2-dihydropyridin-3-yl)methyl]-1,3-benzodioxole-5-carboxamide] are 23 nM, 13 nM and 29 nM.
The corresponding values for `CCc1cc(C)[nH]c(=O)c1CNC(=O)c1cc(-c2cnn(C)c2)c2c(c1C)OC(C)([C@H]1CC[C@H](N(C)C)CC1)O2` (relative stereo) [Example 75, 2-[trans-4-(Dimethylamino)cyclohexyl]-N-[(4-ethyl-6-methyl-2-oxo-1,2-dihydropyridin-3-yl)methyl]-2,4-dimethyl-7-(1-methylpyrazol-4-yl)-1,3-benzodioxole-5-carboxamide hydrochloride] are 11 nM, 21 nM and 26 nM.
As to `CCc1cc(C(=O)NCc2c(C)cc(C)[nH]c2=O)c(C)c2c1OC(C)([C@H]1CC[C@H](N(C)C)CC1)O2` (relative stereo) [Example 76, 2-[trans-4-(Dimethylamino)cyclohexyl]-N-[(4,6-dimethyl-2-oxo-1,2-dihydropyridin-3-yl)methyl]-7-ethyl-2,4-dimethyl-1,3-benzodioxole-5-carboxamide], the figures for the IC50 (in assay [1]; at PRC2-EZH1 (WT EZH1); at PRC2-EZH2 (WT EZH2)) were 0.88 nM, 20 nM and 12 nM, respectively.
For `Cc1cc(C)c(CNC(=O)c2cc(C)c3c(c2C)O[C@@](C)([C@H]2CC[C@H](N(C)C)CC2)O3)c(=O)[nH]1` (single isomer, unassigned) [Example 48], the IC50 was 0.48 nM in assay [1], 8.9 nM against PRC2-EZH1 (WT EZH1) and 8 nM against PRC2-EZH2 (WT EZH2).
The corresponding values for `Cc1cc(C)c(CNC(=O)c2cc(Br)c3c(c2C)OC(C)(C2CCOC2)O3)c(=O)[nH]1` (stereo not drawn) [Example 1, 7-Bromo-N-[(4,6-dimethyl-2-oxo-1,2-dihydropyridin-3-yl)methyl]-2,4-dimethyl-2-(tetrahydrofuran-3-yl)-1,3-benzodioxole-5-carboxamide] are 29 nM, 140 nM and 24 nM.
The corresponding values for `Cc1cc(C)c(CNC(=O)c2cc(Br)c3c(c2C)OC(C)(C24CC(N(C)C)(C2)C4)O3)c(=O)[nH]1` (stereo not drawn) [Example 3, 7-Bromo-2-[3-(dimethylamino)-1-bicyclo[1.1.1]pentanyl]-N-[(4,6-dimethyl-2-oxo-1,2-dihydropyridin-3-yl)methyl]-2,4-dimethyl-1,3-benzodioxole-5-carboxamide] are 26 nM, 660 nM and 30 nM.
Consider `Cc1cc(C)c(CNC(=O)c2cc(Br)c3c(c2C)OC(C)(C2CC4(CC(N(C)C)C4)C2)O3)c(=O)[nH]1` (stereo not drawn) [Example 4, 7-Bromo-2-[2-(dimethylamino)spiro[3.3]heptan-6-yl]-N-[(4,6-dimethyl-2-oxo-1,2-dihydropyridin-3-yl)methyl]-2,4-dimethyl-1,3-benzodioxole-5-carboxamide], for which the IC50 in assay [1] turned out to be 8.3 nM; against PRC2-EZH1 (WT EZH1), 130 nM; against PRC2-EZH2 (WT EZH2), 25 nM.

The record behind these values is patent US10954219B2, “1,3-benzodioxole derivative” (DAIICHI SANKYO COMPANY, LIMITED, priority 2014, dated 2021).
